From PubChem BioAssay AID200 (DTP/NCI, 2004)
Where “and” joins values, the source holds several entries; their conditions need not be identical. Equal values may be shown once. Toxic doses and inconclusive results are not listed. Rule for the calls: active = survival T/C of 150% or more; inactive = T/C below 125% in these data.

Tested on: B6C3F1 mice, B16 melanoma ip, median survival T/C
Experiment: NCI In Vivo Anticancer Drug Screen. Data for tumor model B16 Melanoma (intraperitoneal) in B6C3F1 mice
Conditions: endpoint: median survival time, higher = longer survival
In short: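 Readout: survival or tumor size in treated mice relative to vehicle controls (T/C). Model uses transplantable tumors grown in mice.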

[1] = dose: 50.0 mg/kg/injection, schedule: Q01DX009 (ip), vehicle: saline with Tween-80
[2] = dose: 100.0 mg/kg/injection, schedule: Q01DX009 (ip), vehicle: saline with Tween-80
[3] = dose: 200.0 mg/kg/injection, schedule: Q01DX009 (ip), vehicle: saline with Tween-80
[4] = dose: 12.5 mg/kg/injection, schedule: Q01DX009 (ip), vehicle: saline
[5] = dose: 25.0 mg/kg/injection, schedule: Q01DX009 (ip), vehicle: saline

Measured: T/C

Nc1cc(Cl)c2[nH]cnc2n1
inactive: dose: 6.25 mg/kg/injection, schedule: Q01DX009 (ip), vehicle: water 102 % of control | dose: 12.5 mg/kg/injection, schedule: Q01DX009 (ip), vehicle: distilled water + Tween-80 95 % of control | dose: 12.5 mg/kg/injection, schedule: Q01DX009 (ip), vehicle: water 106 % of control | dose: 25.0 mg/kg/injection, schedule: Q01DX009 (ip), vehicle: distilled water + Tween-80 88 % of control | dose: 25.0 mg/kg/injection, schedule: Q01DX009 (ip), vehicle: water 110 % of control | dose: 50.0 mg/kg/injection, schedule: Q01DX009 (ip), vehicle: distilled water + Tween-80 99 % of control | dose: 50.0 mg/kg/injection, schedule: Q01DX009 (ip), vehicle: water 98 % of control | dose: 100.0 mg/kg/injection, schedule: Q01DX009 (ip), vehicle: distilled water + Tween-80 96 % of control | dose: 100.0 mg/kg/injection, schedule: Q01DX009 (ip), vehicle: water 100 % of control | dose: 200.0 mg/kg/injection, schedule: Q01DX009 (ip), vehicle: water 100 % of control

CN1c2c(nc(N)[nH]c2=O)NCC1CCNc1ccc(C(=O)NC(CCC(=O)O)C(=O)O)cc1 (stereo unspecified)
inactive: dose: 50.0 mg/kg/injection, schedule: Q01DX009 (ip), vehicle: sodium bicarbonate 105 % of control | dose: 100.0 mg/kg/injection, schedule: Q01DX009 (ip), vehicle: sodium bicarbonate 114 % of control

Cc1cc(O)c(O)c(Oc2cc(C)cc(O)c2O)c1
inactive: dose: 75.0 micrograms/kg/injection, schedule: Q01DX009 (ip), vehicle: saline 94 % of control | dose: 150.0 micrograms/kg/injection, schedule: Q01DX009 (ip), vehicle: saline 104 % of control | dose: 300.0 micrograms/kg/injection, schedule: Q01DX009 (ip), vehicle: saline 105 % of control

CC(C)(C)c1ccc(C(=O)N2CCOC23CCCCC3)cc1
inactive: [1] 91 % of control and 101 % of control | [2] 98 % of control and 107 % of control | [3] 94 % of control and 104 % of control | dose: 400.0 mg/kg/injection, schedule: Q01DX009 (ip), vehicle: saline with Tween-80 91 % of control and 104 % of control | dose: 800.0 mg/kg/injection, schedule: Q01DX009 (ip), vehicle: saline with Tween-80 92 % of control and 98 % of control

CC(NC(=O)OCC1c2ccccc2-c2ccccc21)C(=O)O (stereo unspecified)
inactive: dose: 100.0 mg/kg/injection, schedule: Q01DX009 (ip), vehicle: Klucel (hydroxypropylcellulose) (HPC) 104 % of control | dose: 200.0 mg/kg/injection, schedule: Q01DX009 (ip), vehicle: Klucel (hydroxypropylcellulose) (HPC) 101 % of control | dose: 400.0 mg/kg/injection, schedule: Q01DX009 (ip), vehicle: Klucel (hydroxypropylcellulose) (HPC) 87 % of control

Cc1cc2nc3[nH]c4ccccc4c3nc2cc1C
inactive: dose: 12.5 mg/kg/injection, schedule: Q01DX008 (ip), vehicle: saline 91 % of control | dose: 25.0 mg/kg/injection, schedule: Q01DX008 (ip), vehicle: saline 90 % of control | dose: 50.0 mg/kg/injection, schedule: Q01DX008 (ip), vehicle: saline 101 % of control | dose: 100.0 mg/kg/injection, schedule: Q01DX008 (ip), vehicle: saline 91 % of control | dose: 200.0 mg/kg/injection, schedule: Q01DX008 (ip), vehicle: saline 86 % of control | dose: 400.0 mg/kg/injection, schedule: Q01DX008 (ip), vehicle: saline 88 % of control

N=C(N)CCCCCCCCC(=N)N
inactive: dose: 0.78 mg/kg/injection, schedule: Q01DX009 (ip), vehicle: saline 99 % of control and 102 % of control | dose: 1.56 mg/kg/injection, schedule: Q01DX009 (ip), vehicle: saline 108 % of control and 112 % of control | dose: 3.12 mg/kg/injection, schedule: Q01DX009 (ip), vehicle: saline 110 % of control | dose: 3.13 mg/kg/injection, schedule: Q01DX009 (ip), vehicle: saline 102 % of control | dose: 6.25 mg/kg/injection, schedule: Q01DX009 (ip), vehicle: saline 118 % of control and 106 % of control | [4] 112 % of control

c1csc(C[N+]23CN4CN(CN(C4)C2)C3)c1
inactive: dose: 12.0 mg/kg/injection, schedule: Q01DX009 (ip), vehicle: saline 100 % of control | [5] 98 % of control | dose: 50.0 mg/kg/injection, schedule: Q01DX009 (ip), vehicle: saline 98 % of control | dose: 100.0 mg/kg/injection, schedule: Q01DX009 (ip), vehicle: saline 104 % of control | dose: 200.0 mg/kg/injection, schedule: Q01DX009 (ip), vehicle: saline 106 % of control

NC(CCC(=O)NC(CS)C(=O)NCC(=O)O)C(=O)O (stereo unspecified)
inactive: [4] 94 % of control | [5] 113 % of control and 86 % of control and 101 % of control | dose: 400.0 mg/kg/injection, schedule: Q01DX009 (ip), vehicle: saline 91 % of control and 104 % of control and 107 % of control

O=C(Nc1cccc(Cl)c1)C1CCCC1=Nc1cccc(Cl)c1 (stereo unspecified)
inactive: [1] 99 % of control | [2] 96 % of control | [3] 91 % of control
